Test results taken from patent publication US20250144067A1, “PERSONALIZED STARVATION THERAPY FOR CANCER” (Faeth Therapeutics, Inc., priority 2021, published 2025).
Structures can show the parent of a compound that is named as a salt.

How the values were obtained:
[1] = system: NCI-H292 lung cancer cells; assay: FDA drug screening, complete media vs cholesterol-free media without statin (TABLE 1); type: cell-based, human
[2] = system: NCI-H292 lung cancer cells; assay: FDA drug screening, complete media vs cholesterol-free media with simvastatin (TABLE 2); type: cell-based, human; details: for Cholesterol-free media + simvastatin (0.04 μM) / Complete Media: NCI-H292 cells
[3] = NCI-H292 cells, cholesterol-free media without statin, FDA drug library screen
[4] = NCI-H292 cells, complete media, FDA drug library screen
[5] = complete vs cholesterol-free media, >0 enhanced anti-cancer activity, about 0 neutral, <0 antagonist
[6] = cholesterol-free media with simvastatin 0.04 μM, FDA drug library screen (TABLE 2)
[7] = complete media, FDA drug library screen (TABLE 2)
[8] = NCI-H292 cells, cholesterol-free media without statin
[9] = FDA drug library screen, cholesterol-free media with simvastatin 0.04 μM
[10] = FDA drug library screen, complete media
[11] = complete media vs cholesterol-free media + simvastatin (0.04 μM), >0 enhanced anti-cancer activity, about 0 neutral, <0 antagonist
[12] = Complete minus Cholesterol-free, greater than 0 enhanced anti-cancer activity, about 0 neutral, below 0 antagonist
[13] = NCI-H292 cells, FDA drug library screen, cholesterol-free media without statin
[14] = NCI-H292 cells, FDA drug library screen, complete media
[15] = FDA library drug in cholesterol-free media with simvastatin 0.04 μM
[16] = FDA library drug in complete media
[17] = complete media minus cholesterol-free media + simvastatin, >0 enhanced anti-cancer activity, about 0 neutral, <0 antagonist
[18] = Complete minus Cholesterol-free, greater than 0 enhanced anti-cancer activity, about 0 neutral, below 0 antagonists
[19] = NCI-H292 cells in cholesterol-free media without statin
[20] = NCI-H292 cells in complete media
[21] = complete vs cholesterol-free media, greater than 0 enhanced anti-cancer activity, about 0 neutral, below 0 antagonists

CN1CCc2c(c3ccccc3n2Cc2ccccc2)C1 [Mebhydrolin (napadisylate)]
Cholesterol-free [1, 3]: 1.008
Complete [1, 4]: 1.238
Difference [1, 5]: 0.23
Cholesterol-free media + simvastatin (0.04 μM) [2, 6]: 0.9255
Complete Media [2, 7]: 0.929
Difference ([2]; complete media minus cholesterol-free media + simvastatin (0.04 μM), >0 enhanced anti-cancer activity, about 0 neutral, <0 antagonist): 0.00

CN1CCc2c(c3ccccc3n2Cc2ccccc2)C1 [Mebhydrolin]
Difference ([1]; Complete minus Cholesterol-free, >0 enhanced anti-cancer activity, about 0 neutral, <0 antagonist): −0.31
Cholesterol-free [1, 8]: 1.813
Complete ([1]; NCI-H292 cells, complete media): 1.508
Cholesterol-free media + simvastatin (0.04 μM) [2, 9]: 0.7768
Complete Media [2, 10]: 0.6781
Difference [2, 11]: −0.10

Cc1cc(C)c(NC(=O)CN(CC(=O)O)CC(=O)O)c(C)c1Br [Mebrofenin]
Difference [1, 12]: −0.13
Cholesterol-free [1, 13]: 1.088
Complete [1, 14]: 0.9614
Cholesterol-free media + simvastatin (0.04 μM) [2, 15]: 1.2
Complete Media [2, 16]: 0.8726
Difference [2, 11]: −0.33

CC1(C)S[C@@H]2[C@H](/N=C/N3CCCCCC3)C(=O)N2[C@H]1C(=O)O [Mecillinam]
Difference [1, 12]: −0.15
Cholesterol-free [1, 13]: 0.9011
Complete [1, 14]: 0.7528
Cholesterol-free media + simvastatin (0.04 μM) [2, 9]: 1.033
Complete Media [2, 10]: 1.74
Difference [2, 17]: 0.71

Cc1ccc(Cl)c(Nc2ccccc2C(=O)O)c1Cl [Meclofenamate (sodium)]
Difference [1, 18]: −0.59
Cholesterol-free [1, 19]: 1.453
Complete [1, 20]: 0.8579
Cholesterol-free media + simvastatin (0.04 μM) [2, 9]: 1.009
Complete Media [2, 10]: 1.718
Difference [2, 17]: 0.71

CN(C)CCOC(=O)COc1ccc(Cl)cc1 [Meclofenoxate (hydrochloride)]
Difference ([1]; Complete minus Cholesterol-free, […]): −0.28
Cholesterol-free [1, 8]: 1.499
Complete ([1]; NCI-H292 cells, complete media): 1.221
Cholesterol-free media + simvastatin (0.04 μM) [2, 6]: 1.001
Complete Media [2, 7]: 0.9764
Difference ([2]; complete media minus cholesterol-free media + simvastatin (0.04 μM), […]): −0.02

Cc1cccc(C(C)c2cnc[nH]2)c1C (stereo not drawn) [Medetomidine (hydrochloride)]
Cholesterol-free [1, 8]: 1.452
Complete ([1]; NCI-H292 cells, complete media): 1.139
Difference [1, 21]: −0.31
Cholesterol-free media + simvastatin (0.04 μM) ([2]; cholesterol-free media with simvastatin 0.04 μM, cell growth value in FDA drug screen): 0.8752
Complete Media ([2]; complete media, cell growth value in FDA drug screen): 0.9447
Difference [2, 17]: 0.07

Cc1cccc(C(C)c2cnc[nH]2)c1C (stereo not drawn) [Medetomidine]
Difference [1, 12]: −0.10
Cholesterol-free [1, 13]: 1.034
Complete [1, 14]: 0.9342
Cholesterol-free media + simvastatin (0.04 μM) [2, 15]: 1.094
Complete Media [2, 16]: 0.8138
Difference [2, 11]: −0.28

CC(=O)O[C@]1(C(C)=O)CC[C@H]2[C@@H]3C[C@H](C)C4=CC(=O)CC[C@]4(C)[C@H]3CC[C@@]21C [Medroxyprogesterone acetate]
Cholesterol-free [1, 8]: 1.058
Complete ([1]; NCI-H292 cells, complete media): 0.6058
Difference [1, 21]: −0.45
Cholesterol-free media + simvastatin (0.04 μM) [2, 9]: 1.001
Complete Media [2, 10]: 0.9291
Difference [2, 11]: −0.07

CC(=O)[C@H]1CC[C@H]2[C@@H]3C[C@H](C)C4=CC(=O)CC[C@]4(C)[C@H]3[C@@H](O)C[C@]12C [Medrysone]
Cholesterol-free [1, 3]: 0.895
Complete [1, 4]: 1.283
Difference [1, 5]: 0.39
Cholesterol-free media + simvastatin (0.04 μM) ([2]; drug in cholesterol-free media with simvastatin 0.04 μM): 1.51
Complete Media ([2]; drug in complete media): 1.254
Difference [2, 11]: −0.26

Cc1cccc(Nc2ccccc2C(=O)O)c1C [Mefenamic acid]
Difference [1, 18]: −0.58
Cholesterol-free [1, 19]: 2.136
Complete [1, 20]: 1.551
Cholesterol-free media + simvastatin (0.04 μM) [2, 9]: 1.014
Complete Media [2, 10]: 0.8951
Difference [2, 11]: −0.12

OC(c1cc(C(F)(F)F)nc2c(C(F)(F)F)cccc12)C1CCCCN1 (stereo not drawn) [Mefloquine (hydrochloride)]
Difference [1, 18]: −0.49
Cholesterol-free [1, 19]: 1.439
Complete [1, 20]: 0.9523
Cholesterol-free media + simvastatin (0.04 μM) [2, 9]: 1.137
Complete Media [2, 10]: 1.057
Difference [2, 11]: −0.08
